Assay results reported in ChEMBL document CHEMBL5042488, “Synthesis, biological, and structural explorations of a series of μ-opioid receptor (MOR) agonists with high G protein signaling bias” (Eur J Med Chem, 2022).
Calls of active or inactive are those of the source.

Assays:
Mu-type opioid receptor [1] = biological target: T1, Mu-type opioid receptor (Homo sapiens, UniProt P35372); test: Agonist activity at mu opioid receptor (unknown origin) assessed as increase in cAMP level incubated for 40 mins by spectrophotometry; type: functional
T1 sequence (P35372 whole entry): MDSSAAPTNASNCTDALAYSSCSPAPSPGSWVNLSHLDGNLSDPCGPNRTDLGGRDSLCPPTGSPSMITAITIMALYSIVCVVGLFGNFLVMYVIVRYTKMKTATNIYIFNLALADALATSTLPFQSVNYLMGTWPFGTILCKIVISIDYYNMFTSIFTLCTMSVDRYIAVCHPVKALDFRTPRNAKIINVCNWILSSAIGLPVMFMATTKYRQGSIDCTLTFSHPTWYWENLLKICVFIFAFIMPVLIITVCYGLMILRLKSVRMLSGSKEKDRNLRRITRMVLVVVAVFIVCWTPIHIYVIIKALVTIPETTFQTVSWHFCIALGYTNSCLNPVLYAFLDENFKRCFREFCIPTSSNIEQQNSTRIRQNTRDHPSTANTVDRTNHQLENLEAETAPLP

[2] = Metabolic stability in rat liver microsomes assessed as intrinsic clearance preincubated for 10 mins followed by NADPH addition and measured after 60 mins by LC-MS/MS analysis; type: ADME, Microsome; settings: time 70 min, read-out: CLH
[3] = Apparent permeability across apical to basal membrane in human Caco-2 cells; type: ADME, cell-based
Mu-type opioid receptor [4] = biological target: T1, Mu-type opioid receptor; test: Agonist activity at mu opioid receptor (unknown origin) assessed as maximal cAMP level incubated for 40 mins by spectrophotometry relative to DAMGO; type: functional; settings: filed as agonist
[5] = Metabolic stability in dog liver microsomes assessed as intrinsic clearance preincubated for 10 mins followed by NADPH addition and measured after 60 mins by LC-MS/MS analysis; type: ADME, Canis lupus familiaris, Microsome; settings: time 70 min, read-out: CLH
[6] = Plasma protein binding in human plasma assessed as unbound fraction; type: ADME, cell-free
[7] = Plasma protein binding in rat plasma assessed as unbound fraction; type: ADME, cell-free
[8] = Plasma protein binding in dog plasma assessed as unbound fraction; type: ADME, cell-free, Canis lupus familiaris
Cytochrome P450 2C19 = Cytochrome P450 2C19 (Homo sapiens, UniProt P33261); test: Inhibition of CYP2C19 (unknown origin); type: ADME
Chain of Cytochrome P450 2C19 (P33261 whole entry): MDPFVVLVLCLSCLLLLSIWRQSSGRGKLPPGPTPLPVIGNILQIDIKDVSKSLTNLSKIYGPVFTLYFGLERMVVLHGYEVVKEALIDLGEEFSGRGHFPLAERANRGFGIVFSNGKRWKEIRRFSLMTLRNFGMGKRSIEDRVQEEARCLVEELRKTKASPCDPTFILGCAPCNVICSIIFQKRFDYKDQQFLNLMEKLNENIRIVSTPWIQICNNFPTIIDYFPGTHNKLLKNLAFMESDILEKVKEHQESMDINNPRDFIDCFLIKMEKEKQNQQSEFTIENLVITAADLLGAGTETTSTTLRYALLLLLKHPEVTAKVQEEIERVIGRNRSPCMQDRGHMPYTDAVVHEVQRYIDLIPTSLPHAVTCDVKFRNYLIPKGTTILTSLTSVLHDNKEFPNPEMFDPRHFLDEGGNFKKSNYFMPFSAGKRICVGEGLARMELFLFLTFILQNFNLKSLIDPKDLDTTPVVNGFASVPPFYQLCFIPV

[9] = Cmax in Sprague-Dawley rat at 2 mg/kg, iv by LC-MS/MS analysis; type: ADME, organism-based; parameters: route intravenous, dose 2 mg/kg; settings: in vivo
[10] = AUClast in Sprague-Dawley rat at 2 mg/kg, iv by LC-MS/MS analysis; type: ADME, organism-based; parameters: time 0 - last, route intravenous, dose 2 mg/kg; settings: in vivo
[11] = AUC(0 to infinity) in Sprague-Dawley rat at 2 mg/kg, iv by LC-MS/MS analysis; type: ADME, organism-based; parameters: route intravenous, time infinity, dose 2 mg/kg; settings: in vivo
[12] = Apparent volume of distribution in Sprague-Dawley rat at 2 mg/kg, iv by LC-MS/MS analysis; type: ADME, organism-based; settings: in vivo, read-out: Vz
[13] = Half life in Sprague-Dawley rat at 2 mg/kg, iv by LC-MS/MS analysis; type: ADME, organism-based; settings: in vivo
[14] = MRT in Sprague-Dawley rat at 2 mg/kg, iv by LC-MS/MS analysis; type: ADME, organism-based; settings: in vivo
Mu-type opioid receptor [15] = biological target: T1, Mu-type opioid receptor; test: Displacement of [3H]-Diprenorphine from human mu opiod receptor expressed in CHO cells incubated for 1 hr by competition binding assay; type: cell-based
Mu-type opioid receptor [16] = biological target: T1, Mu-type opioid receptor; test: Agonist activity at human mu opioid receptor expressed in HEK293 assessed as increase in calcium mobilization incubated for 60 mins by FLIPR assay; type: functional, cell-based
[17] = biological target: Delta-type opioid receptor (Homo sapiens, UniProt P41143); test: Agonist activity at human delta opioid receptor expressed in HEK293 assessed as increase in calcium mobilization incubated for 60 mins by FLIPR assay; type: functional, cell-based
Chain of Delta-type opioid receptor (P41143 whole entry): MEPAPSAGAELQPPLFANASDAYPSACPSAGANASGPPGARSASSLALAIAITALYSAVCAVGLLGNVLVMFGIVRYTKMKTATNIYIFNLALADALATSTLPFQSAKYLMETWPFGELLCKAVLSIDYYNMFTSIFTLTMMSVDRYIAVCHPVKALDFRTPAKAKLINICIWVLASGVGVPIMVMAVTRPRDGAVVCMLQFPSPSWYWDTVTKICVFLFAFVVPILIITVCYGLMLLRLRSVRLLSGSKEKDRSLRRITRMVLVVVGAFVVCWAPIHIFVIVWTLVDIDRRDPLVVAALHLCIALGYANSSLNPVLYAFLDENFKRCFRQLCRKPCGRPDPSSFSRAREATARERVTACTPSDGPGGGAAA

[18] = biological target: Kappa-type opioid receptor (Homo sapiens, UniProt P41145); test: Agonist activity at human kappa opioid receptor expressed in HEK293 assessed as increase in calcium mobilization incubated for 60 mins by FLIPR assay; type: functional, cell-based
Chain of Kappa-type opioid receptor (P41145 whole entry): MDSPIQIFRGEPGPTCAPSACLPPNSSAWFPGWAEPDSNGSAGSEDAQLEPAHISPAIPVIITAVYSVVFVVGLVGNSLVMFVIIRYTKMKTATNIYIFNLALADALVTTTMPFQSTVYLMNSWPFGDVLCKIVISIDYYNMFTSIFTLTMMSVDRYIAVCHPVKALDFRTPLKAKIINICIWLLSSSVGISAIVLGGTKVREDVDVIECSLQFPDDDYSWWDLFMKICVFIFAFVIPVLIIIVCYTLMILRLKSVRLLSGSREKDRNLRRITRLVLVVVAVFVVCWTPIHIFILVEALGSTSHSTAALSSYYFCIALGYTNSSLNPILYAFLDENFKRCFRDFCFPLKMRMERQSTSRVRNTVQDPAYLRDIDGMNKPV

Rattus norvegicus [19] = test: Antinociceptive activity in Sprague-Dawley rat assessed as increase in paw withdrawal latency at 0.3 mg/kg, sc measured after 30 mins by Hot-plate test; type: functional, organism-based
Rattus norvegicus [20] = test: Antinociceptive activity in sc dosed Sprague-Dawley rat assessed as increase in thermal pain threshold measured after 30 mins by Hot-plate test; type: functional; settings: 0.5 h
[21] = Toxicity in Sprague-Dawley rat assessed as effect on respiration at 0.3 mg/kg, sc; type: organism-based; settings: in vivo
[22] = Toxicity in Sprague-Dawley rat model assessed as effect on blood oxygen levels at […], sc measured after 30 mins by blood gas analyzer; type: organism-based; settings: in vivo, 0.5 h, dose 0.32 mg/kg
[23] = Drug concentration in Sprague-Dawley rat brain at […], iv measured after 5 mins by LC-MS/MS analysis; type: ADME, organism-based; settings: dose 0.25 mg/kg, read-out: Drug uptake
[24] = Ratio of drug concentration in brain to plasma of Sprague-Dawley rat at 2 mg/kg, iv measured at […] by LC-MS/MS analysis; type: ADME, organism-based; settings: time 0.25 hrs
[25] = Drug concentration in Sprague-Dawley rat liver at […],iv measured after 30 mins by LC-MS/MS analysis; type: ADME, organism-based; settings: in vivo, 0.5 h, dose 0.25 mg/kg
Mu-type opioid receptor [26] = biological target: T1, Mu-type opioid receptor; test: Agonist activity at mu opioid receptor (unknown origin) assessed as maximal beta arrestin-2 recruitment incubated for 3 days by PathHunter assay relative to DAMGO; type: functional; settings: time 3.0 day
Rattus norvegicus [27] = test: Antinociceptive activity in Sprague-Dawley rat incision pain model assessed as increase in paw withdrawal latency at 0.125 to 0.5 mg/kg, sc measured after 30 mins by Von Frey filament assay; type: functional; settings: dose 0.125-0.5 mg/kg
[28] = Half life of compound; type: physicochemical
Cytochrome P450 2C9 = Cytochrome P450 2C9 (Homo sapiens, UniProt P11712); test: Inhibition of CYP2C9 (unknown origin); type: ADME
Chain of Cytochrome P450 2C9 (P11712 whole entry): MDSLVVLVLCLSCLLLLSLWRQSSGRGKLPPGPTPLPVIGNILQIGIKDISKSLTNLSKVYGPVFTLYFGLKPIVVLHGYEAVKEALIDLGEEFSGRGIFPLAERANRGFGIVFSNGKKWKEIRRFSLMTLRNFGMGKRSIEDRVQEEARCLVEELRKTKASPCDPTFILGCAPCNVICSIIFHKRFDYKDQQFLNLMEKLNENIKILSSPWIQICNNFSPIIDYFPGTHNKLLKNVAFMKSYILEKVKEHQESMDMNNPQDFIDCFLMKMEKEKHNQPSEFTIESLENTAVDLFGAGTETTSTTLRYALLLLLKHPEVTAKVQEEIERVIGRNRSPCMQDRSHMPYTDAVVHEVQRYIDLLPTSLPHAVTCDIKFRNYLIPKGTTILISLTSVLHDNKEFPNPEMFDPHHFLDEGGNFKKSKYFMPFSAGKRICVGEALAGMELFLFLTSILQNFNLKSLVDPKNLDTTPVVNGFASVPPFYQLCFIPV

Rattus norvegicus [29] = test: Antinociceptive activity in Sprague-Dawley rat assessed as increase in paw withdrawal latency at 1 mg/kg, sc measured after 30 mins by Hot-plate test; type: functional, organism-based
[30] = Toxicity in Sprague-Dawley rat assessed as effect on blood oxygen levels at 1.56 mg/kg, sc measured after 30 mins by blood gas analyzer; type: organism-based; settings: in vivo, 0.5 h

| SMILES | CLint scaled [2] [mL/min/kg] | Papp A→B [3] [×10⁻⁶ cm/s] | Emax (Mu-type opioid receptor [4]) [%] | CLint scaled [5] [mL/min/kg] | fraction unbound [6] | fraction unbound [7] | fraction unbound [8] | IC50 (Cytochrome P450 2C19) [µM] | Cmax [9] [ng/mL] | Vd [12] [L/kg] | half-life [13] [min] | MRT [14] [min] | EC50 [17] [µM] | EC50 [18] [µM] | ED50 (Rattus norvegicus [20]) [mg/kg] | concentration at 5 min [23] [ng/g] | Drug uptake [25] [%] | Emax (Mu-type opioid receptor [26]) [%] | half-life [28] [min] | also measured |
| --- | --- | --- | --- | --- | --- | --- | --- | --- | --- | --- | --- | --- | --- | --- | --- | --- | --- | --- | --- | --- |
| Fc1ccc([C@]2(CCNCc3cccc(Cl)c3)CCO[C@]3(CCOC3)C2)nc1 | 176 | 5.2 | 91.4 | 152 | 0.34 | 0.33 | 0.17 | > 33 | 252 | 10.8 | 119 | 48.6 | > 10 | > 10 | 0.23 | 172 | 58.6 | 1.6 | 7.16 | EC50 (Mu-type opioid receptor [1]): 0.00035 µM; AUC(0-t) [10]: 132 ng·h/mL; AUC [11]: 134.01 ng·h/mL; Ki (Mu-type opioid receptor [15]): 0.000514 µM; EC50 (Mu-type opioid receptor [16]): 0.00509 µM; Activity (Rattus norvegicus [19]): Active; Activity [21]: Non-Toxic; Activity [22]: 92.17%; Kp at […] [24]: 4.61; Activity (Rattus norvegicus [27]): 50% |
| COc1ccsc1CNCC[C@@]1(c2ccccn2)CCOC2(CCCC2)C1 [OLICERIDINE] | 1110 | 4.4 | 92.5 | 465 | 0.22 | 0.36 | 0.023 | > 50 | 249 | 6.39 | 72.6 | 49.2 | > 10 | > 10 | 0.85 | 64.8 | 23.8 | 4.6 | 6.51 | IC50 (Cytochrome P450 2C9): > 50 µM; Activity (Rattus norvegicus [29]): Active; Activity [30]: 87.62% |
